Patent US4925835A, “Aziridinyl putrescine containing compositions and their uses in treating prostate cancer” (priority 1987, dated 1990)
pKi: −log10 of the molar value.

Experiments:
normal rat prostate = assay: In vivo antiprostatic activity, prostate wet weight; details: Copenhagen rats
Protocol: 1-(4-aminobutyl) aziridine, difluoromethylornithine, and a combination of 1-(4-aminobutyl) aziridine and difluoromethylornithine were tested in vivo for antiprostatic activity using Copenhagen rats. The normal rat prostate is often used as a model or control for drugs which are suspected of having antiprostatic cancer activity. Sloan, et al., Cancer Chemother. Rep. 59: 185-194 (1975). 1-(4-aminobutyl) aziridine, difluoromethylornithine, and a combination of 1-(4-aminobutyl) aziridine and difluoromethylornithine were administered to twenty-eight (28) Copenhagen rats for 14 days. 1-(4-aminobutyl) aziridine was administered by an infusion mini-pump implanted intraperitoneally.
Difluoromethylornithine was administered orally. The 1-(4-aminobutyl) aziridine was delivered at a rate of 2 mg/kg/day. A similar amount of difluoromethylornithine was administered orally on a daily basis. Before loading the infusion pump, the pH of 1-(4-aminobutyl) aziridine was adjusted to 7.5 with hydrochloric acid. The pump rate was 0.5 u./hr.
The prostates of the twenty-eight (28) subjects were removed, freed of fat and weighed to the nearest milligram.

[1] = system: uptake of [14C]putrescine into PC-3 cells; assay type: cell-based, human; details: PC-3 cells
Protocol: FIG. 1. Lineweaver-Burk plot of the uptake of [^14 C]putrescine by DFMO-pretreated cells. The ordinate is expressed as 1/pmol/15 min. The abscissa is expressed as 1 μM concentrations containing from 16 to 1.0 μM [^14 C]putrescine.
Fifty thousand PC-3 cells were plated in 12-well plates and 18 h later the incubation medium was removed and replaced with 1 ml or RPMI 1640 medium containing 25 mM 4-(2-hydroxyethyl)-1-piperazineethansulfonic acid buffer, 100 μM aminoguanidine, and 10% FCS. Forty-eight h later the medium was replaced with medium which contained [^14 C]putrescine in concentrations ranging from 16 to 1.0 μM with or without 5 1M 1-(4-aminobutyl) aziridine. Following incubation at 37° C. for 15 min the [^14 C]putrescine-containing medium was aspirated, and the cells were rinsed rapidly 4 times with HBSS. Following the last rinse, 1.0 ml of a solution of 0.1N NaOH was added and after a 2-h incubation at room temperature a 0.2-ml aliquot was added to 1 ml of 2% glacial acidic acid and 10 ml of Scintiverse 1 scintillation cocktail and the radioactive disintegrations were determined with a Packard Tri-Carb 300 scintillation spectrophotometer. Counting efficiency for ^14 C was 80%. Kinetic analysis of uptake was performed by graphic methods as described by Dixon and Webb, Enzymes, p. 322, New York Academic Press (1959).
In FIG. 1 a Lineweaver-Burk plot of the uptake of [^14 C]-putrescine into the PC-3 cells is presented and was used to determine the Km (intercept x axis) and Vmax (intercept y axis) for putrescine.

PC-3 cells = assay: Polyamine assays: intracellular polyamine levels by HPLC; assay type: cell-based, human
Protocol: One h later the medium was aspirated and the cells were rinsed with cold HBSS. Three plates were treated with dilute trypsin to release the cells from the plate and provide a single cell suspension. The viability of the cells and the number of cells per plate were determined by trypan blue exclusion and counting with the aid of a hemocytometer. […] The other three plates were extracted with 0.4N perchloric acid and the polyamines were measured by fluorescence following postcolumn derivatization with o-phthalaldehyde following separation by the reverse phase ion-pair high performance liquid chromatography procedure of Wagner et al., J. Chomatogr., 227: 349-368, 1982.
In Table 2 are listed the values for the triplicate assays of the concentrations of polyamine observed in nontreated cells, cells treated with 1-(4-aminobutyl) aziridine for 1 h, cells pretreated for 48 h with 1 mM difluoromethylornithine and then incubated in drug free medium for 1 h, or cells pretreated for 48 h with difluoromethylornithine, rinsed free of difluoromethylornithine, and then incubated with 25 μM 1-(4-aminobutyl)aziridine for 1 h. All groups had cell viabilities greater than 95% and cell numbers were 4.9±0.6 (SE), 4.9±0.7, 4.8±0.4, and 4.6±0.4×10^6 cells for the control, 1-(4-aminobutyl) aziridine, difluoromethylornithine, and difluoromethylornithine+1-(4-aminobutyl) aziridine groups, respectively. The apparent amount of 1-(4-aminobutyl) aziridine in the difluoromethylornithine-treated cells was 3.7 times that of the 1-(4-aminobutyl) aziridine-only-treated cells. No N^8 -acetylspermidine, acetylputrescine, or cadaverine was detected in any group. A peak was detected at a wavelength of 254 nm in the difluoromethylornithine treatment groups that corresponds to the retention time of decarboxylated S-adenosylmethionine.
^a PC-3 cells were incubated with or without 1 mM DFMO for 48 h. Cell
were then rinsed free of DFMO and incubated for 1 h with 25 μM AZP. Th
cells were washed free of AZP by three rinses of HBSS. With one set of
triplicate plates, the cells were resuspended and counted by hemocytomete
and viability was determined by trypan dye exclusion (viability > 95%).
Another set triplicate plates was extracted with icecold perchloric acid
and filtered and the polyamine concentrations were determined by HPLC.
^b Mean ± SE for a triplicate assay. Histamine is included as a […]

[2] = Alkylating activity with 4-(p-nitrobenzyl)pyridine; details: 100 nmol in 5.0 ml, 0.1M acetate, PH 4.5, 37° C., 2 h
Protocol: The preparation of 1-(4-aminobutyl) aziridine from 1,4-diaminobutane (putrescine) was performed by the three-step synthetic method reported by Piper et al. supra.
1-(4-aminobutyl) aziridine (100 nmol) produced an absorbance increase of 0.7 with 4-(p-nitrobenzyl)pyridine in 5.0 ml when incubated in 0.1M acetate, PH 4.5, at 37° C. for 2 h. […] The retention times were: putrescine, 19.6 min; 1-(4-aminobutyl) aziridine, 21.1 min; and histamine, 21.8 min.

[3] = 14 days, AZP 2 mg/kg/day by intraperitoneal infusion mini-pump, DFMO similar amount orally
[4] = PC-3, ±1 mM DFMO 48 h, then ±25 μM AZP 1 h, mean ± SE

NCCCCN1CC1 [AZP, 1-(4-aminobutyl) aziridine]
Reduction of the size of the normal ventral prostate (normal rat prostate; 2 mg/kg/day over a fourteen day period): approximately 67% | Animal toxicity (weight or fur loss, poor posture) (normal rat prostate; 2 mg/kg/day, 14 days): no evidence of animal toxicity | Organ toxicity on examination at sacrifice (liver, spleen, intestine, kidneys) (normal rat prostate; 2 mg/kg/day, 14 days): no other organs, e.g., liver, spleen, intestine, kidneys, demonstrated any evidence of toxicity | Effect on prostate size (in words) (normal rat prostate; 14 days): significantly decreased the size of the normal ventral prostates | Dorsal Lateral Prostate, milligram wet weight (SEM) (normal rat prostate; [3]): 474 ± 39 milligram | Ventral Prostate, milligram wet weight (SEM) (normal rat prostate; [3]): 378 ± 30 milligram | Type of inhibition of putrescine uptake [1]: consistent with competitive inhibition | pKi ([1]; with or without difluoromethylornithine pretreatment, 5 1M AZP, read-out: Apparent Ki for inhibition of putrescine uptake): 6.00 | Apparent amount of AZP in DFMO-treated cells relative to AZP-only-treated cells (PC-3 cells; 25 μM AZP 1 h, 1 mM DFMO 48 h pretreatment): 3.7 times | Polyamine levels: AZP (PC-3 cells; PC-3, ±1 mM DFMO 48 h, then 25 μM AZP 1 h, mean ± SE): 115 ± 32 pmol/10^6 | Cell numbers at end of treatment (PC-3 cells; PC-3, ±1 mM DFMO 48 h, then ±25 μM AZP 1 h, SE): 4.9±0.7 ×10^6 cells | Polyamine levels: Hist (histamine, nonpolyamine control) (PC-3 cells; [4]): 86 ± 25 pmol/10^6 | Polyamine levels: NaSpm (N-acetylspermine) (PC-3 cells; [4]): 125 ± 28 pmol/10^6 | Polyamine levels: PUT (putrescine) (PC-3 cells; [4]): 2520 ± 170 pmol/10^6 | Polyamine levels: Spd (spermidine) (PC-3 cells; [4]): 2884 ± 100 pmol/10^6 | Polyamine levels: Spm (spermine) (PC-3 cells; [4]): 3604 ± 323 pmol/10^6 | Absorbance increase with 4-(p-nitrobenzyl)pyridine (alkylating activity) [2]: 0.7
